Data taken from patent US20260022142A1, “MACROCYCLIC IMMUNOMODULATORS” (Bristol-Myers Squibb Company, priority 2022, published 2026).
Numbered stars: 1 amine (or outer) side, 2 acyl side, 3 side chain; on linkers, the order of the positions; unused ones are H or OH. Bridge positions count the residues as written; N and C are the ends. Square brackets hold non-standard residues; d marks the D form. Peptide text beside a SMILES is read from it. * marks the point of attachment. ξ: configuration not given here. Bip = N[C@@H](Cc1ccc(-c2ccccc2)cc1)C(=O)O; Phe(3-Me) = Cc1cccc(C[C@H](N)C(=O)O)c1; Val(3-OH) = CC(C)(O)[C@H](N)C(=O)O; X6 = O=C(Cc1ccc(CN[*:1])cc1)[*:2]; hArg = N=C(N)NCCCC[C@H](N)C(=O)O; 4Pal = N[C@@H](Cc1ccncc1)C(=O)O; Cha = N[C@@H](CC1CCCCC1)C(=O)O; Cit = NC(=O)NCCC[C@H](N)C(=O)O; Ile(3ξ) = CCC(C)[C@H](N)C(=O)O; Thr(3ξ) = CC(O)[C@H](N)C(=O)O; 12Ado = NCCCCCCCCCCCC(=O)O; Carboxymethyl = O=C(O)C*; Orn = NCCC[C@H](N)C(=O)O; Aun = NCCCCCCCCCCC(=O)O; Dab = NCC[C@H](N)C(=O)O; Dap = NC[C@H](N)C(=O)O; AEEA = NCCOCCOCC(=O)O; Ac3c = NC1(C(=O)O)CC1; Propargyl = C#CC*

Target: T1, PD-1/PD-L1 interaction (PE-labeled human PD-L1-Ig binding to Jurkat cell line over-expressing human PD-1) (Homo sapiens, UniProt Q15116)
T1 construct: expressed in transfected cells; host or cells: Jurkat
T1 sequence (Q15116 25-288): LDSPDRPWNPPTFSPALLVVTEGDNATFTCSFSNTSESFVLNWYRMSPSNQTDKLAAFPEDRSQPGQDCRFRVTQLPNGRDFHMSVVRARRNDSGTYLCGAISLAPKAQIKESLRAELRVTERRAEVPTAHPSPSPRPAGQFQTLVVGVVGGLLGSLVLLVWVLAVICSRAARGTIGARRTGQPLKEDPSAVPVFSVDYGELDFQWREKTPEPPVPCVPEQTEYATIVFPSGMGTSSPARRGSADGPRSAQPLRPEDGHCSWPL
Assay: Jurkat-PD-1 Cell Binding High-Content Screening Assay (CBA)
Assay type: cell-based
Conditions: Jurkat cell line over-expressing human PD-1; PE-labeled PD-L1-Ig 20 nM final; read-out: Jurkat hPD1-PDL1 IC50
Summary of the method: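 Jurkat-hPD-1 cells, DMEM/10% FCS; cpd 2 h 37° C; PE-PD-L1-Ig 20 nM final, 1 h; 4% PFA fix + Hoechst 33342, 3× dPBS wash; high-content imaging read-out.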

Structure (SMILES)	IC50 [nM]
CC(C)C[C@H]1NC(=O)[C@H](CCCN)NC(=O)[C@H](C(C)C)NC(=O)[C@H](Cc2ccc(-c3ccccc3)cc2)NC(=O)[C@H](C(C)C)NC(=O)[C@H](Cc2c[nH]c3ccccc23)NC(=O)[C@H](CC(=O)O)NC(=O)[C@H](Cc2ccc(OCC(=O)O)cc2)NC(=O)[C@H](CN)NC(=O)CSC[C@@H](C(=O)N[C@@H](CCCN)C(=O)NCCCCCCCCCCC(=O)O)NC(=O)[C@H](C(C)O)NC(=O)[C@H](C(C)C)NC(=O)[C@H](CC2CCCCC2)NC(=O)[C@H](CC(N)=O)NC1=O (stereo partly drawn) [Compound 3149] ({CH2CO}-[Dap]Y(Carboxymethyl)DWV[Bip]V[Orn][dL]N[Cha]V[Thr(3ξ)]C[Orn][Aun]-OH; thioether N-14)	46.5
CC(C)C[C@H]1NC(=O)[C@H](CCCN)NC(=O)[C@H](Cc2c[nH]cn2)NC(=O)[C@H](Cc2ccc(-c3ccccc3)cc2)NC(=O)[C@H](C(C)C)NC(=O)[C@H](Cc2c[nH]c3ccccc23)NC(=O)[C@H](CC(=O)O)NC(=O)[C@H](Cc2ccc(OCC(=O)O)cc2)NC(=O)[C@H](Cc2ccccc2)NC(=O)CSC[C@@H](C(=O)N[C@@H](CCCN)C(=O)NCCOCCOCC(=O)NCCCCCCCCCCC(=O)O)NC(=O)[C@H](CO)NC(=O)[C@H](C(C)C)NC(=O)[C@H](CC2CCCCC2)NC(=O)[C@H](CCN)NC1=O [Compound 3057] ({CH2CO}-FY(Carboxymethyl)DWV[Bip]H[Orn][dL][Dab][Cha]VSC[Orn][AEEA][Aun]-OH; thioether N-14)	53.9
Cc1cccc(C[C@@H]2NC(=O)[C@H](CC(=O)O)NC(=O)[C@H](Cc3ccc(OCC(=O)O)cc3)NC(=O)[C@H](CN)NC(=O)CSC[C@@H](C(=O)N[C@@H](CCN)C(=O)NCCCCCCCCCCC(=O)O)NC(=O)[C@H](CO)NC(=O)[C@H](C(C)(C)O)NC(=O)[C@H](CC3CCCCC3)NC(=O)[C@H](CCN)NC(=O)[C@@H](CC(C)C)NC(=O)[C@H](CCCN)NC(=O)[C@H](Cc3ccc(OCC(=O)O)cc3)NC(=O)[C@H](Cc3ccc(-c4ccccc4)cc3)NC(=O)[C@H](Cc3ccc(OCC(=O)O)cc3)NC2=O)c1 [Compound 2213] ({CH2CO}-[Dap]Y(Carboxymethyl)D[Phe(3-Me)]Y(Carboxymethyl)[Bip]Y(Carboxymethyl)[Orn][dL][Dab][Cha][Val(3-OH)]SC[Dab][Aun]-OH; thioether N-14)	11
Cc1cccc(C[C@@H]2NC(=O)[C@H](CC(=O)O)NC(=O)[C@H](Cc3ccc(OCC(=O)O)cc3)NC(=O)[C@H](CN)NC(=O)CSC[C@@H](C(=O)NCc3ccc(CC(=O)N[C@@H](CCN)C(=O)NCCCCCCCCCCC(=O)O)cc3)NC(=O)[C@H](CN)NC(=O)[C@H](C(C)C)NC(=O)[C@H](CC3CCCCC3)NC(=O)[C@H](CCN)NC(=O)[C@@H](CC(C)C)NC(=O)[C@H](CCCN)NC(=O)[C@H](C(C)C)NC(=O)[C@H](Cc3ccc(-c4ccccc4)cc3)NC(=O)[C@H](C(C)C)NC2=O)c1 [Compound 2003] ({CH2CO}-[Dap]Y(Carboxymethyl)D[Phe(3-Me)]V[Bip]V[Orn][dL][Dab][Cha]V[Dap]C[X6][Dab][Aun]-OH; thioether N-14)	136
CC(C)C[C@H]1NC(=O)[C@H](CCCN)NC(=O)[C@H](Cc2ccc(O)cc2)NC(=O)[C@H](Cc2ccc(-c3ccccc3)cc2)NC(=O)[C@H](Cc2ccc(O)cc2)NC(=O)[C@H](Cc2c[nH]c3ccccc23)NC(=O)[C@H](CC(=O)O)NC(=O)[C@H](Cc2ccc(OCC(=O)O)cc2)NC(=O)[C@H](Cc2ccc(OCC(=O)O)cc2)NC(=O)CSC[C@@H](C(=O)NCCOCCOCC(=O)NCCCCCCCCCCC(=O)O)NC(=O)[C@H](CCCNC(=N)N)NC(=O)[C@H](Cc2ccc(O)cc2)NC(=O)[C@H](CC2CCCCC2)NC(=O)[C@H](CCN)NC1=O [Compound 2516] ({CH2CO}-Y(Carboxymethyl)Y(Carboxymethyl)DWY[Bip]Y[Orn][dL][Dab][Cha]YRC[AEEA][Aun]-OH; thioether N-14)	126
Cc1cccc(C[C@@H]2NC(=O)[C@H](CC(=O)O)NC(=O)[C@H](Cc3ccc(OCC(=O)O)cc3)NC(=O)[C@H](CN)NC(=O)CSC[C@@H](C(=O)N[C@@H](CCN)C(=O)NCCOCCOCC(=O)NCCCCCCCCCCC(=O)O)NC(=O)[C@H](CCCN)NC(=O)[C@H](Cc3ccc(O)cc3)NC(=O)[C@H](CC3CCCCC3)NC(=O)[C@H](CCN)NC(=O)[C@@H](CC(C)C)NC(=O)[C@H](CCCN)NC(=O)[C@H](Cc3ccc(O)cc3)NC(=O)[C@H](Cc3ccc(-c4ccccc4)cc3)NC(=O)[C@H](C(C)C)NC2=O)c1 [Compound 2578] ({CH2CO}-[Dap]Y(Carboxymethyl)D[Phe(3-Me)]V[Bip]Y[Orn][dL][Dab][Cha]Y[Orn]C[Dab][AEEA][Aun]-OH; thioether N-14)	10.7
CC(C)C[C@H]1NC(=O)[C@H](CCCN)NC(=O)[C@H](C(C)C)NC(=O)[C@H](Cc2ccc(-c3ccccc3)cc2)NC(=O)[C@H](C(C)C)NC(=O)[C@H](Cc2c[nH]c3ccccc23)NC(=O)[C@H](CC(=O)O)NC(=O)[C@H](Cc2ccc(OCC(=O)O)cc2)NC(=O)[C@H](CCCCNC(=N)N)NC(=O)CSC[C@@H](C(=O)N[C@@H](CCN)C(=O)NCCOCCOCC(=O)NCCCCCCCCCCC(=O)O)NC(=O)[C@H](CCCN)NC(=O)[C@H](C(C)C)NC(=O)[C@H](CC2CCCCC2)NC(=O)[C@H](CC(N)=O)NC1=O [Compound 3216] ({CH2CO}-[hArg]Y(Carboxymethyl)DWV[Bip]V[Orn][dL]N[Cha]V[Orn]C[Dab][AEEA][Aun]-OH; thioether N-14)	35.2
C#CCOc1ccc(C[C@@H]2NC(=O)[C@H](C(C)C)NC(=O)[C@H](CC3CCCCC3)NC(=O)[C@H](CCN)NC(=O)[C@@H](CC(C)C)NC(=O)[C@H](CCCN)NC(=O)[C@H](Cc3ccc(OCC(=O)O)cc3)NC(=O)[C@H](Cc3ccc(-c4ccccc4)cc3)NC(=O)[C@H](Cc3ccc(OCC(=O)O)cc3)NC(=O)[C@H](Cc3cccc(C)c3)NC(=O)[C@H](CC(=O)O)NC(=O)[C@H](Cc3ccc(OCC(=O)O)cc3)NC(=O)[C@H](CN)NC(=O)CSC[C@@H](C(=O)N[C@@H](CCN)C(=O)NCCOCCOCC(=O)NCCCCCCCCCCC(=O)O)NC2=O)cc1 [Compound 1251] ({CH2CO}-[Dap]Y(Carboxymethyl)D[Phe(3-Me)]Y(Carboxymethyl)[Bip]Y(Carboxymethyl)[Orn][dL][Dab][Cha]VY(Propargyl)C[Dab][AEEA][Aun]-OH; thioether N-14)	38

The next compounds have a lower IC50 than those just listed; values first:

IC50 [nM]	Structure (SMILES)
10.1	CCC(C)[C@@H]1NC(=O)[C@H](Cc2ccc(-c3ccccc3)cc2)NC(=O)[C@H](C(C)C)NC(=O)[C@H](Cc2cccc(C)c2)NC(=O)[C@H](CC(=O)O)NC(=O)[C@H](Cc2ccc(OCC(=O)O)cc2)NC(=O)[C@H](C(C)O)NC(=O)CSC[C@@H](C(=O)NCCOCCOCC(=O)N[C@@H](CCCCN)C(=O)NCCCCCCCCCCCC(=O)O)NC(=O)[C@H](C(C)O)NC(=O)[C@H](C(C)C)NC(=O)[C@H](CC2CCCCC2)NC(=O)[C@H](CCN)NC(=O)[C@@H](CC(C)C)NC(=O)[C@H](CCCN)NC1=O (stereo partly drawn) [Compound 3095] ({CH2CO}-[Thr(3ξ)]Y(Carboxymethyl)D[Phe(3-Me)]V[Bip][Ile(3ξ)][Orn][dL][Dab][Cha]V[Thr(3ξ)]C[AEEA]K[12Ado]-OH; thioether N-14)
9.3	CCC(C)[C@@H]1NC(=O)[C@H](Cc2ccc(-c3ccccc3)cc2)NC(=O)[C@H](C(C)C)NC(=O)[C@H](Cc2c[nH]c3ccccc23)NC(=O)[C@H](CC(=O)O)NC(=O)[C@H](Cc2ccc(OCC(=O)O)cc2)NC(=O)[C@H](CCCNC(=N)N)NC(=O)CSC[C@@H](C(=O)N[C@H](CC(N)=O)C(=O)NCCCCCCCCCCC(=O)O)NC(=O)[C@H](CCCN)NC(=O)[C@H](C(C)C)NC(=O)[C@H](CC2CCCCC2)NC(=O)[C@H](CCN)NC(=O)[C@@H](CC(C)C)NC(=O)[C@H](CCN)NC1=O (stereo partly drawn) [Compound 3285] ({CH2CO}-RY(Carboxymethyl)DWV[Bip][Ile(3ξ)][Dab][dL][Dab][Cha]V[Orn]C[dN][Aun]-OH; thioether N-14)
7.7	CC[C@H](C)[C@@H]1NC(=O)[C@H](Cc2ccc(-c3ccccc3)cc2)NC(=O)[C@H](C(C)C)NC(=O)[C@H](Cc2c[nH]c3ccccc23)NC(=O)[C@H](CC(=O)O)NC(=O)[C@H](Cc2ccc(OCC(=O)O)cc2)NC(=O)[C@H](Cc2ccncc2)NC(=O)CSC[C@@H](C(=O)N[C@@H](CCCN)C(=O)NCCOCCOCC(=O)NC2(C(=O)NCCCCCCCCCCC(=O)O)CC2)NC(=O)[C@H](CN)NC(=O)[C@H](C(C)C)NC(=O)[C@H](CC(C)C)NC(=O)[C@H](CCN)NC(=O)[C@@H](CC(C)C)NC(=O)[C@H](CCCN)NC1=O [Compound 2006] ({CH2CO}-[4Pal]Y(Carboxymethyl)DWV[Bip]I[Orn][dL][Dab]LV[Dap]C[Orn][AEEA][Ac3c][Aun]-OH; thioether N-14)
7.6	CC(C)C[C@H]1NC(=O)[C@H](CCCN)NC(=O)[C@H](C(C)C)NC(=O)[C@H](Cc2ccc(-c3ccccc3)cc2)NC(=O)[C@H](C(C)C)NC(=O)[C@H](Cc2c[nH]c3ccccc23)NC(=O)[C@H](CC(=O)O)NC(=O)[C@H](Cc2ccc(OCC(=O)O)cc2)NC(=O)[C@H](CN)NC(=O)CSC[C@@H](C(=O)NCCOCCOCC(=O)N[C@@H](CCN)C(=O)NCCCCCCCCCCC(=O)O)NC(=O)[C@H](CCCCN)NC(=O)[C@H](C(C)C)NC(=O)[C@H](CC2CCCCC2)NC(=O)[C@H](CCN)NC1=O [Compound 2541] ({CH2CO}-[Dap]Y(Carboxymethyl)DWV[Bip]V[Orn][dL][Dab][Cha]VKC[AEEA][Dab][Aun]-OH; thioether N-14)
6.1	Cc1cccc(C[C@@H]2NC(=O)[C@H](CC(=O)O)NC(=O)[C@H](Cc3ccc(OCC(=O)O)cc3)NC(=O)[C@H](CN)NC(=O)CSC[C@@H](C(=O)NCCOCCOCC(=O)N[C@@H](CC(=O)O)C(=O)NCCCCCCCCCCC(=O)O)NC(=O)[C@H]([C@@H](C)O)NC(=O)[C@H](C(C)C)NC(=O)[C@H](CC3CCCCC3)NC(=O)[C@H](CCN)NC(=O)[C@@H](CC(C)C)NC(=O)[C@H](CCCN)NC(=O)[C@H](CCCNC(N)=O)NC(=O)[C@H](Cc3ccc(-c4ccccc4)cc3)NC(=O)[C@H](C(C)C)NC2=O)c1 [Compound 1032] ({CH2CO}-[Dap]Y(Carboxymethyl)D[Phe(3-Me)]V[Bip][Cit][Orn][dL][Dab][Cha]VTC[AEEA]D[Aun]-OH; thioether N-14)
